Measured values: US9302999B2, “Substituted triazoles as herbicides” (E. I. DU PONT DE NEMOURS AND COMPANY, priority 2012, dated 2016)

Experiments:
Format in all cases: in vivo
[1] = test system: windgrass (Apera spica-venti); assay: Test C postemergence: windgrass
Method in brief: (§1)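 Plants at the 1- to 4-leaf stage (2 to 18 cm tall), grown in pots of peat moss/vermiculite planting medium, received postemergence applications of the formulated test chemicals. After 13 to 15 days in a greenhouse, injury was scored visually versus controls from 0 (no effect) to 100 (complete control).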

[2] = test system: barley (winter barley, Hordeum vulgare); assay: Test C postemergence: barley
Method in brief: as §1

[3] = test system: foxtail, green (green foxtail, Setaria viridis); assay: Test C pre-/postemergence: foxtail, green
Description: (§2) Seeds of plant species selected from blackgrass (Alopecurus myosuroides), bromegrass, downy (downy bromegrass, Bromus tectorum), foxtail, green (green foxtail, Setaria viridis), ryegrass, Italian (Italian ryegrass, Lolium multiflorum), winter wheat (Triticum aestivum), wild oat (Avena fatua), galium (catchweed bedstraw, Galium aparine), bermudagrass (Cynodon dactylon), surinam grass (Brachiaria decumbens), cocklebur (common cocklebur, Xanthium strumarium), corn (Zea mays), large crabgrass (Digitaria sanguinalis), woolly cupgrass (Eriochloa villosa), foxtail, giant (giant foxtail, Setaria faberii), goosegrass (Eleusine indica), johnsongrass (Sorghum halepense), kochia (Kochia scoparia), lambsquarters (Chenopodium album), morningglory (Ipomoea coccinea), nightshade (eastern black nightshade, Solanum ptycanthum), nutsedge, yellow (yellow nutsedge, Cyperus esculentus), pigweed (Amaranthus retroflexus), ragweed (common ragweed, Ambrosia elation), soybean (Glycine max), common (oilseed) sunflower (Helianthus annuus), Russian thistle (Salsola kali) and velvetleaf (Abutilon theophrasti) were planted into a blend of loam soil and sand and treated preemergence with test chemicals formulated in a non-phytotoxic solvent mixture which included a surfactant.
(§3) At the same time, plants selected from these crop and weed species and also barley (winter barley, Hordeum vulgare), canarygrass (Phalaris minor), chickweed (common chickweed, Stellaria media) windgrass (Apera spica-venti) and deadnettle (henbit deadnettle, Lamium amplexicaule) were planted in pots containing Redi-Earth® planting medium (Scotts Company, 14111 Scottslawn Road, Marysville, Ohio 43041) comprising spaghnum peat moss, vermiculite, wetting agent and starter nutrients and treated with postemergence applications of test chemicals formulated in the same manner. Plants ranged in height from 2 to 18 cm (1- to 4-leaf stage) for postemergence treatments.
(§4) Treated plants and controls were maintained in a greenhouse for 13 to 15 days, after which time all species were compared to controls and visually evaluated. Plant response ratings, summarized in Table C, are based on a scale of 0 to 100 where 0 is no effect and 100 is complete control. A dash (-) response means no test result.

[4] = test system: goosegrass (Eleusine indica); assay: Test C pre-/postemergence: goosegrass
Method in brief: (§5)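 Visual injury scored 0–100 (100 = complete control) against untreated controls after 13–15 greenhouse days. Surfactant-containing solvent formulations applied either to soil after sowing (loam/sand) or over 1- to 4-leaf plants, 2–18 cm tall.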

[5] = test system: nightshade (eastern black nightshade, Solanum ptycanthum); assay: Test C pre-/postemergence: nightshade; settings: Preemergence
Description: as §2, §3, §4

[6] = test system: bromegrass, downy (downy bromegrass, Bromus tectorum); assay: Test C pre-/postemergence: bromegrass, downy
Description: as §2, §3, §4

[7] = test system: canarygrass (Phalaris minor); assay: Test C postemergence: canarygrass
Description: as §3, §4

[8] = test system: common (oilseed) sunflower (Helianthus annuus); assay: Test C pre-/postemergence: sunflower; settings: Preemergence
Method in brief: as §5

[9] = test system: cocklebur (common cocklebur, Xanthium strumarium); assay: Test C pre-/postemergence: cocklebur
Method in brief: as §5

[10] = 31 g ai/ha, scale 0 to 100 (0 no effect, 100 complete control)
[11] = 62 g ai/ha, scale 0 to 100 (0 no effect, 100 complete control)
[12] = 125 g ai/ha, scale 0 to 100, 0 no effect, 100 complete control
[13] = Postemergence, 31 g ai/ha, scale 0 to 100 (0 no effect, 100 complete control)
[14] = Postemergence, 125 g ai/ha, scale 0 to 100, 0 no effect, 100 complete control
[15] = Postemergence, 250 g ai/ha, scale 0 to 100
[16] = Preemergence, 31 g ai/ha, scale of 0 to 100, 0 is no effect, 100 is complete control
[17] = Preemergence, 62 g ai/ha, scale of 0 to 100, 0 is no effect, 100 is complete control
[18] = Preemergence, 125 g ai/ha, scale 0 to 100, 0 no effect, 100 complete control
[19] = Preemergence, 250 g ai/ha, scale 0 to 100, 0 no effect, 100 complete control
[20] = Postemergence, 62 g ai/ha, scale 0 to 100 (0 no effect, 100 complete control)
[21] = 31 g ai/ha, scale of 0 to 100, 0 is no effect, 100 is complete control
[22] = 62 g ai/ha, scale of 0 to 100, 0 is no effect, 100 is complete control
[23] = 250 g ai/ha, scale 0 to 100, 0 no effect, 100 complete control

## FC(F)(F)COc1nn(-c2ccc(C(F)(F)F)cc2)nc1Cc1ccnc(C(F)(F)F)c1 [Compound 14, 4-[[5-(2,2,2-trifluoroethoxy)-2-[4-(trifluoromethyl)phenyl]-2H-1,2,3-triazol-4-yl]methyl]-2-(trifluoromethyl)pyridine]
[1]; [10]
  Plant response rating, Windgrass: 70
[1]; [11]
  Plant response rating, Windgrass: 90
[1]; [12]
  Plant response rating, Windgrass: 95
[1]; 250 g ai/ha, scale 0 to 100
  Plant response rating, Windgrass: 95
[2]; [10]
  Plant response rating, Barley: 30
[2]; [11]
  Plant response rating, Barley: 35
[2]; [12]
  Plant response rating, Barley: 50
[2]; 250 g ai/ha, scale 0 to 100
  Plant response rating, Barley: 50
[3]; [13]
  Plant response rating, Foxtail, Green: 70
[3]; [14]
  Plant response rating, Foxtail, Green: 90
[3]; [15]
  Plant response rating, Foxtail, Green: 90
[3]; [16]
  Plant response rating, Foxtail, Green: 80
[3]; [17]
  Plant response rating, Foxtail, Green: 100
[3]; [18]
  Plant response rating, Foxtail, Green: 100
[3]; [19]
  Plant response rating, Foxtail, Green: 100
[4]; [13]
  Plant response rating, Goosegrass: 5
[4]; [20]
  Plant response rating, Goosegrass: 5
[4]; [14]
  Plant response rating, Goosegrass: 60
[4]; [15]
  Plant response rating, Goosegrass: 75
[4]; [16]
  Plant response rating, Goosegrass: 98
[4]; [17]
  Plant response rating, Goosegrass: 100
[4]; [18]
  Plant response rating, Goosegrass: 100
[4]; [19]
  Plant response rating, Goosegrass: 100
[5]; [21]
  Plant response rating, Nightshade: 55
[5]; [22]
  Plant response rating, Nightshade: 80
[5]; [12]
  Plant response rating, Nightshade: 95
[5]; [23]
  Plant response rating, Nightshade: 98
[6]; [13]
  Plant response rating, Bromegrass, Downy: 30
[6]; [20]
  Plant response rating, Bromegrass, Downy: 40
[6]; [14]
  Plant response rating, Bromegrass, Downy: 40
[6]; [15]
  Plant response rating, Bromegrass, Downy: 45
[6]; [16]
  Plant response rating, Bromegrass, Downy: 30
[6]; Preemergence, 62 g ai/ha, scale 0 to 100, 0 no effect, 100 complete control
  Plant response rating, Bromegrass, Downy: 35
[6]; [18]
  Plant response rating, Bromegrass, Downy: 60
[6]; [19]
  Plant response rating, Bromegrass, Downy: 98
[7]; [10]
  Plant response rating, Canarygrass: 55
[7]; [11]
  Plant response rating, Canarygrass: 80
[7]; [12]
  Plant response rating, Canarygrass: 85
[7]; 250 g ai/ha, scale 0 to 100
  Plant response rating, Canarygrass: 85
[8]; [21]
  Plant response rating, Sunflower: 0
[8]; [22]
  Plant response rating, Sunflower: 0
[8]; [12]
  Plant response rating, Sunflower: 0
[8]; [23]
  Plant response rating, Sunflower: 15
[9]; [13]
  Plant response rating, Cocklebur: 5
[9]; [20]
  Plant response rating, Cocklebur: 5
[9]; [14]
  Plant response rating, Cocklebur: 45
[9]; [15]
  Plant response rating, Cocklebur: 75
[9]; [16]
  Plant response rating, Cocklebur: 0
[9]; [18]
  Plant response rating, Cocklebur: 20
[9]; [19]
  Plant response rating, Cocklebur: 45
